Test results: article PMC12206033, “Selective inhibition of TRPV3 channel by natural rosmarinic acid and its analogs for alleviation of skin lesions through downregulation of NF-κB pathway” (The Journal of Biological Chemistry, 2025)

Target: T1, TRPV3 T636A (Homo sapiens, UniProt Q8NET8, T636A)
T1 construct: expressed in transfected cells; host or cells: HEK293T
T1 sequence (Q8NET8 1-790 T636A): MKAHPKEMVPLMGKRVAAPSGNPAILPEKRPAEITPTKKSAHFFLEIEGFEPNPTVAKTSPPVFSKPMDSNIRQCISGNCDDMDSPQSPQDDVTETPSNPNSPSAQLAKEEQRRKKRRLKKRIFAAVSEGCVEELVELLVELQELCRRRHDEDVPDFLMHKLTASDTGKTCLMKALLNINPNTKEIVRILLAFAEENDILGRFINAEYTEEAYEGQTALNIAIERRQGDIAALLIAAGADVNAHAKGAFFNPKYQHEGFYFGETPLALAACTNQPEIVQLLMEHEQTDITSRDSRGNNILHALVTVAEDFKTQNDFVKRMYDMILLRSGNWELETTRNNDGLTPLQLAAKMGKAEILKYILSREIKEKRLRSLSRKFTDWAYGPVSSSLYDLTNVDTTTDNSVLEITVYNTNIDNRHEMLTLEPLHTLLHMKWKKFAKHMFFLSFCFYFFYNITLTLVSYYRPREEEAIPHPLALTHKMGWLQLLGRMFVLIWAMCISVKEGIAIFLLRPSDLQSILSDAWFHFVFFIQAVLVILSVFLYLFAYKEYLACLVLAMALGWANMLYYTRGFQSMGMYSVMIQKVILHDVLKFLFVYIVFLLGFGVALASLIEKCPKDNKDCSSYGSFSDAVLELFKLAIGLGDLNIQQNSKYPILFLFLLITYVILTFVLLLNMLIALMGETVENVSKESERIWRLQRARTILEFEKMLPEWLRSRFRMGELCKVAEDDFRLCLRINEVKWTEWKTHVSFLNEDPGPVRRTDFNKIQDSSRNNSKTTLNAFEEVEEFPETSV
Assay: single-channel inside-out patch recordings of TRPV3 T636A mutant
Assay type: cell-based
Details: ROSA 100 μM co-applied with 2-APB 50 μM; n = 4
Procedure: HEK293T cell line was obtained from the Cell Resource Center, Peking Union Medical College. HEK293T cells were maintained in Dulbecco’s modified Eagle’s medium (DMEM, Gibco) supplemented with 10% fetal bovine serum at 37 °C with 5% CO2. […] The next day, determine the plasmid transfection status by observing green fluorescence based on expression of enhanced GFP as an indicator. […] When conducting experiments on HEK293T cells transfected with G573S point mutant TRPV3 plasmid, we replaced culture medium with or without compounds after 4 h of transfection and then observed green fluorescence of HEK293T cell after 10 h. As for the relative fluorescence intensity, we convert the image to 8 bit grayscale using ImageJ (Https://imagej.net/software/fiji/downloads) and set an appropriate threshold value to reduce background noise and enhance the image contrast.
All patch-clamp recordings were conducted 16 to 24 h after transfection using an EPC10 amplifier powered by PatchMaster software (HEKA) (https://www.heka.com/downloads/downloads_main.html#down_patchmaster) at room temperature. […] Currents were recorded at a potential ramp from −100 mV to +100 mV for 1000 ms with 1000-ms intervals (for whole-cell recordings) or a persistent potential of −60 mV (inside-out patch recordings). […]

For `O=C(/C=C/c1ccc(O)c(O)c1)O[C@H](Cc1ccc(O)c(O)c1)C(=O)O` [ROSA, rosmarinic acid], the “single-channel open probability, T636A mutant” value was 0.67.
